Assay results published in ChEMBL document CHEMBL5614442, “Discovery, synthesis and biological evaluation of novel isoquinoline derivatives as potent indoleamine 2, 3-dioxygenase 1 and tryptophan 2, 3-dioxygenase dual inhibitors” (Eur J Med Chem, 2024).
Active and inactive are the calls of the source. The rule behind the calls is not given here.

Assays:
[1] = target: T1, Indoleamine 2,3-dioxygenase 1 (Homo sapiens, UniProt P14902); assay: Inhibition of N-terminal His-tagged recombinant human IDO1 extracted from Escherichia coli Transetta (DE3) using L-tryptophan as substrate preincubated for 5 mins followed by substrate addition and measured after 1 hrs by absorbance based microplate reader
Target sequence in this assay (P14902 whole entry): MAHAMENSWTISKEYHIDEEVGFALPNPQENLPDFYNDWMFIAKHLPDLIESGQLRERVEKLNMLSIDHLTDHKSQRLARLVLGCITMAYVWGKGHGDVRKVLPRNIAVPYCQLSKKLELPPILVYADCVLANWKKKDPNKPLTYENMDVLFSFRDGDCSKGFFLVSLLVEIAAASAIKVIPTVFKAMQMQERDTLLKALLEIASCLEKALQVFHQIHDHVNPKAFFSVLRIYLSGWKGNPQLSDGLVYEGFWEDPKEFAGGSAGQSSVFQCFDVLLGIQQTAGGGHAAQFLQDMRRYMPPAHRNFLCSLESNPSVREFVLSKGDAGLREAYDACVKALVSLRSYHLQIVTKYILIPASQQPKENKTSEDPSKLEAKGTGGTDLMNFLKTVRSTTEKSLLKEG

[2] = target: T2, Tryptophan 2,3-dioxygenase (Homo sapiens, UniProt P48775)
Target sequence in this assay (P48775 whole entry): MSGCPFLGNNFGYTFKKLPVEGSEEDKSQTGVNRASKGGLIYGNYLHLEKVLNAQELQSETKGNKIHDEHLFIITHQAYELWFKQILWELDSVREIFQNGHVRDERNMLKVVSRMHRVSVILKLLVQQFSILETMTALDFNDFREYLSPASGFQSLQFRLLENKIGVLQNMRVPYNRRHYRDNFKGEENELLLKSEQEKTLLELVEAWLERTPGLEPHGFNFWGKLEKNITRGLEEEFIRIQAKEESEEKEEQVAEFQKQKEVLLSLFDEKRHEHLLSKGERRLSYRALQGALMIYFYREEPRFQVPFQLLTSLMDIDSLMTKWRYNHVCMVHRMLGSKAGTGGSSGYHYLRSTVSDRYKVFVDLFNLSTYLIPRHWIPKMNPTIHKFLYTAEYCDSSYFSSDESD

[3] = target: T2, Tryptophan 2,3-dioxygenase; assay: Inhibition of TDO (unknown origin)
[4] = target: T1, Indoleamine 2,3-dioxygenase 1; assay: Inhibition of IDO1 (unknown origin)
[5] = target: T1, Indoleamine 2,3-dioxygenase 1; assay: Inhibition of IDO1 in IFN-gamma induced human HeLa cells using L-tryptophan as substrate incubated for 24 hrs by absorbance based microplate analysis; format: cell-based
Target sequence in this assay (P14902 whole entry): as the sequence (P14902 whole entry) above

[6] = target: T2, Tryptophan 2,3-dioxygenase; remark: listed apart in the source
Target sequence in this assay (P48775 whole entry): as the sequence (P48775 whole entry) above

[7] = Tmax in male Sprague-Dawley rat at 20 mg/kg, ip measured after 8 hrs by LC-MS analysis; format: ADME, organism-based; details: in vivo
[8] = Bioavailability in male Sprague-Dawley rat at 20 mg/kg, ip measured after 8 hrs by LC-MS analysis; format: ADME, organism-based; details: in vivo
U-87 MG = assay: Cytotoxicity against human U87 cells assessed as reduction in cell viability at effective concentration incubated for 24 hrs by CCK8 assay; format: toxicity, cell-based; details: u-87mg atcc
[9] = Half-life in male Sprague-Dawley rat at 20 mg/kg, ip measured after 8 hrs by LC-MS analysis; format: ADME, organism-based; details: in vivo
[10] = target: T1, Indoleamine 2,3-dioxygenase 1; assay: Binding affinity to recombinant human IDO1 assessed as equilibrium dissociation constant by SPR analysis
Target sequence in this assay (P14902 whole entry): as the sequence (P14902 whole entry) above

[11] = Volume of distribution in male Sprague-Dawley rat at 2 mg/kg, iv measured after 8 hrs by LC-MS analysis; format: ADME, organism-based; details: in vivo
[12] = Clearance in male Sprague-Dawley rat at 20 mg/kg, ip measured after 8 hrs by LC-MS analysis; format: ADME, organism-based; details: in vivo
[13] = Cmax in male Sprague-Dawley rat at 20 mg/kg, ip measured after 8 hrs by LC-MS analysis; format: ADME, organism-based; details: in vivo
HeLa = assay: Cytotoxicity against human HeLa cells assessed as reduction in cell viability at effective concentration incubated for 24 hrs by CCK8 assay; format: toxicity, cell-based
HEK-293T = assay: Cytotoxicity against HEK293T cells assessed as reduction in cell viability at effective concentration incubated for 24 hrs by CCK8 assay; format: toxicity, cell-based; details: human
[14] = Volume of distribution in male Sprague-Dawley rat at 20 mg/kg, ip measured after 8 hrs by LC-MS analysis; format: ADME, organism-based; details: in vivo
[15] = AUC (0 to infinity) in male Sprague-Dawley rat at 2 mg/kg, iv measured after 8 hrs by LC-MS analysis; format: ADME, organism-based; details: in vivo
[16] = Clearance in male Sprague-Dawley rat at 100 mg/kg, po measured after 8 hrs by LC-MS analysis; format: ADME, organism-based; details: in vivo
[17] = target: T1, Indoleamine 2,3-dioxygenase 1; details: dose 0.78-25 µM
Target sequence in this assay (P14902 whole entry, looked up): as the sequence (P14902 whole entry) above

[18] = Clearance in male Sprague-Dawley rat at 2 mg/kg, iv measured after 8 hrs by LC-MS analysis; format: ADME, organism-based; details: in vivo
[19] = target: T1, Indoleamine 2,3-dioxygenase 1; assay: Binding affinity to recombinant human IDO1 assessed as dissociation rate constant at 0.78 to 25 uM by SPR analysis
Target sequence in this assay (P14902 whole entry): as above

[20] = Half-life in male Sprague-Dawley rat at 100 mg/kg, po measured after 8 hrs by LC-MS analysis; format: ADME, organism-based; details: in vivo
[21] = Cmax in male Sprague-Dawley rat at 100 mg/kg, po measured after 8 hrs by LC-MS analysis; format: ADME, organism-based; details: in vivo
[22] = Toxicity in male C57BL/6 mouse implanted with mouse B16-F10 cells assessed as effect on spleen morphology at 25 to 100 mg/kg, ip administered once daily for 14 days by H and E staining based analysis; format: organism-based; details: in vivo, 336 h, dose 25-100 mg/kg, time 14 day
[23] = target: T2, Tryptophan 2,3-dioxygenase; remark: listed apart in the source
Target sequence in this assay (P48775 whole entry): as the sequence (P48775 whole entry) above

[24] = Volume of distribution in male Sprague-Dawley rat at 100 mg/kg, po measured after 8 hrs by LC-MS analysis; format: ADME, organism-based; details: in vivo
[25] = Oral bioavailability in male Sprague-Dawley rat at 100 mg/kg measured after 8 hrs by LC-MS analysis; format: ADME, organism-based; details: in vivo
B16-F10 [26] = assay: Antitumor activity against mouse B16-F10 cells implanted in male C57BL/6 mouse model assessed as suppression of tumor growth administered intraperitoneally once daily for 14 days; format: functional, cell-based; details: dose 25-100 mg/kg, route ip, time 14.0 day
[27] = AUC (0 to t) in male Sprague-Dawley rat at 100 mg/kg, po measured after 8 hrs by LC-MS analysis; format: ADME, organism-based; details: in vivo
[28] = AUC (0 to infinity) in male Sprague-Dawley rat at 100 mg/kg, po measured after 8 hrs by LC-MS analysis; format: ADME, organism-based; details: in vivo
[29] = AUC (0 to infinity) in male Sprague-Dawley rat at 20 mg/kg, ip measured after 8 hrs by LC-MS analysis; format: ADME, organism-based; details: in vivo
[30] = Half-life in male Sprague-Dawley rat at 2 mg/kg, iv measured after 8 hrs by LC-MS analysis; format: ADME, organism-based; details: in vivo
[31] = Toxicity in male C57BL/6 mouse implanted with mouse B16-F10 cells assessed as body weight loss at 25 to 100 mg/kg, ip administered once daily for 14 days; format: organism-based; details: in vivo, 336 h, dose 25-100 mg/kg, time 14 day
[32] = Toxicity in male C57BL/6 mouse implanted with mouse B16-F10 cells assessed as effect on heart morphology at 25 to 100 mg/kg, ip administered once daily for 14 days by H and E staining based analysis; format: organism-based; details: in vivo, 336 h, dose 25-100 mg/kg, time 14 day
[33] = Toxicity in male C57BL/6 mouse implanted with mouse B16-F10 cells assessed as effect on lung morphology at 25 to 100 mg/kg, ip administered once daily for 14 days by H and E staining based analysis; format: organism-based; details: in vivo, 336 h, dose 25-100 mg/kg, time 14 day
[34] = AUC (0 to t) in male Sprague-Dawley rat at 2 mg/kg, iv measured after 8 hrs by LC-MS analysis; format: ADME, organism-based; details: in vivo
[35] = Tmax in male Sprague-Dawley rat at 100 mg/kg, po measured after 8 hrs by LC-MS analysis; format: ADME, organism-based; details: in vivo
[36] = Cmax in male Sprague-Dawley rat at 2 mg/kg, iv measured after 8 hrs by LC-MS analysis; format: ADME, organism-based; details: in vivo
[37] = target: T2, Tryptophan 2,3-dioxygenase; details: dose 0.78-25 µM
Target sequence in this assay (P48775 whole entry, looked up): as the sequence (P48775 whole entry) above

[38] = Toxicity in male C57BL/6 mouse implanted with mouse B16-F10 cells assessed as effect on kidney morphology at 25 to 100 mg/kg, ip administered once daily for 14 days by H and E staining based analysis; format: organism-based; details: in vivo, 336 h, dose 25-100 mg/kg, time 14 day
B16-F10 [39] = assay: Cytotoxicity against mouse B16-F10 cells assessed as reduction in cell viability at effective concentration incubated for 24 hrs by CCK8 assay; format: toxicity, cell-based; details: b16-f10, 24 h
[40] = Toxicity in male C57BL/6 mouse implanted with mouse B16-F10 cells assessed as effect on liver morphology at 25 to 100 mg/kg, ip administered once daily for 14 days by H and E staining based analysis; format: organism-based; details: in vivo, 336 h, dose 25-100 mg/kg, time 14 day
[41] = AUC (0 to t) in male Sprague-Dawley rat at 20 mg/kg, ip measured after 8 hrs by LC-MS analysis; format: ADME, organism-based; details: in vivo
[42] = Tmax in male Sprague-Dawley rat at 2 mg/kg, iv measured after 8 hrs by LC-MS analysis; format: ADME, organism-based; details: in vivo

`COc1ccc2cc(-c3cccs3)ncc2c1O` showed an IC50 [1] of 21 µM and an IC50 [2] of 1.02 µM.
`COc1ccc2cc(-c3ccc(NC(=O)c4ccc(C(F)(F)F)cc4)cc3)ncc2c1O` showed an IC50 [1] of over 100 µM and an IC50 [2] of 3.25 µM.
`COc1ccc2cc(-c3cccs3)ncc2c1OC` showed an IC50 [1] of 11.2 µM and an IC50 [2] of 2.9 µM.
`COc1ccc2cc(-c3ccc(NC(=O)c4ccc(F)cc4)cc3)ncc2c1O` gave an IC50 [1] of over 100 µM and an IC50 [2] of over 100 µM.
Work on `COc1ccc2cc3[n+](cc2c1OC)CCc1cc2c(cc1-3)OCO2` [BERBERINE] yielded an IC50 [3] of 0.03 µM and an IC50 [4] of 0.26 µM.
With `COc1ccc2cc3[n+](cc2c1O)CCc1cc2c(cc1-3)OCO2` the inhibition [3] was “Active” and the inhibition [4] was “Active”.
Molecule `COc1ccc2cc(-c3ccc(NS(=O)(=O)N4CCCCC4)cc3)ncc2c1O` has an IC50 [1] of 15.4 µM and an IC50 [2] of 7.97 µM.
`COc1ccc2cc(-c3ccc(C)cc3)ncc2c1O` showed an IC50 [1] of over 100 µM and an IC50 [2] of over 100 µM.
For `COc1ccc2cc(-c3ccc4c(c3)OCO4)ncc2c1O`, the IC50 [5] was over 30 µM, the IC50 [1] was 5.1 µM and the IC50 [6] was 25.8 µM. For the same molecule, the IC50 [2] was 0.28 µM.
`Oc1cccc2cc(-c3ccccc3)ncc12` showed an IC50 [1] of 70.5 µM and an IC50 [2] of 25 µM.
Molecule `COc1ccc2cc(-c3ccccc3)ncc2c1O` has an IC50 [5] of 17.1 µM, an IC50 [1] of 0.89 µM and an IC50 [6] of 24 µM. For the same molecule, the IC50 [2] was 0.24 µM.
Molecule `COc1ccc(-c2cc3ccc(OC)c(OC)c3cn2)cc1` has an IC50 [1] of 11.1 µM and an IC50 [2] of 2.72 µM.
For `COc1ccc2cc(-c3ccc(NS(=O)(=O)C(F)(F)F)cc3)ncc2c1O`, the Tmax [7] was 0.25 h, the bioavailability [8] was 72.6% and the Activity (U-87 MG) was “Non-Toxic”. It also gave a half-life [9] of 1.2 h, a Kd [10] of 0.45 µM and a Vd [11] of 6.9 L/kg. For the same molecule, the CL/F [12] was 50 mL/min/kg, the Cmax [13] was 11400 ng/mL and the Activity (HeLa) was “Non-Toxic”. The Activity (HEK-293T) was “Non-Toxic”, the Vd [14] was 5.17 L/kg and the IC50 [5] was 9.29 µM. The AUC(0-inf) [15] was 917 ng·h/mL, the CL/F [16] was 59.7 mL/min/kg and the Ka [17] was 4.69 10^4/Ms. It also gave a clearance [18] of 37.6 mL/min/kg, an IC50 [1] of 0.31 µM and a koff [19] of 0.021 s⁻¹. For the same molecule, the IC50 [6] was 7.23 µM, the half-life [20] was 2.8 h and the Cmax [21] was 5190 ng/mL. The Activity [22] was “Non-Toxic”, the Kd [23] was 0.74 µM and the Vd [24] was 14.376 L/kg. For the same molecule, the bioavailability [25] was 61.9%, the Activity (B16-F10 [26]) was “Dose-Dependent Effect” and the AUC(0-t) at 8 h [27] was 23300 ng·h/mL. It also gave an AUC(0-inf) [28] of 28400 ng·h/mL, an AUC(0-inf) [29] of 6660 ng·h/mL and a half-life [30] of 2.14 h. The Activity [31] was “Non-Toxic”, the Activity [32] was “Non-Toxic” and the Activity [33] was “Non-Toxic”. For the same molecule, the AUC(0-t) at 8 h [34] was 916 ng·h/mL, the Tmax [35] was 1.33 h and the Cmax [36] was 3420 ng/mL. The Ka [37] was 4.9 10^4/Ms, the Activity [38] was “Non-Toxic” and the Activity (B16-F10 [39]) was “Non-Toxic”. For the same molecule, the Activity [40] was “Non-Toxic”, the AUC(0-t) at 8 h [41] was 6690 ng·h/mL and the IC50 [2] was 0.08 µM. For the same molecule, the Tmax [42] was 4.98 min.
`COc1ccc2cc(-c3cc4ccccc4o3)ncc2c1OC` gave an IC50 [1] of over 100 µM and an IC50 [2] of over 100 µM.
In the case of `COc1ccc2cc(-c3ccc(NC(=O)Nc4ccccc4)cc3)ncc2c1O`, the IC50 [1] is reported as 50.5 µM and the IC50 [2] is reported as 14.3 µM.
`COc1ccc2cc(-c3ccc(F)cc3)ncc2c1OC` showed an IC50 [1] of 42.6 µM and an IC50 [2] of 9.08 µM.
For `COc1ccc2cc(C34C[C@H]5C[C@@H](C3)C[C@@H](C4)C5)ncc2c1OC`, the IC50 [1] was 17.8 µM and the IC50 [2] was 2.64 µM.
Molecule `COc1ccc2cc(-c3ccc(F)cc3)ncc2c1O` has an IC50 [1] of over 100 µM and an IC50 [2] of 51 µM.
In the case of `COc1ccc(-c2ncc3c(O)c(OC)ccc3n2)cc1`, the IC50 [1] is reported as over 100 µM and the IC50 [2] is reported as over 100 µM.
`COc1ccc2cc(-c3ccc4ncsc4c3)ncc2c1OC` gave an IC50 [1] of over 100 µM and an IC50 [2] of over 100 µM.
